Measurements from patent publication US9234006B2, “Compounds” (Novacta Biosystems Limited, priority 2011, dated 2016).
Structures can show the parent of a compound that is named as a salt. Where two headings read alike, the source gives them in different places. Marks after values point to notes of the source that are not given here. Where a SMILES comes first, the peptide text is derived from it. Bridges are numbered along the chain shown (N, C = ends). [ ]: non-standard residue; d: D form. The star is where a group is joined. ξ: configuration not given here. Thr(3ξ) = CC(O)[C@H](N)C(=O)O; Dab = NCC[C@H](N)C(=O)O; X1 = CCCCCCC(O)C(=O)*; GABA = NCCCC(=O)O

Key:
HK-2 cell line = settings: 24 h incubation, resazurin reduction; Table 7
Description: The renal cell toxicity of the compounds was assessed in an in vitro assay using the HK-2 cell line, an immortalized proximal tubule cell line derived from a normal human kidney. The endpoint to describe the toxicity of the compounds was the reduction of resazurin correlating with the metabolic activity of the cells.
Cells were cultured in 150 cm^2 flasks in 25 mL supplemented KSF (with 5 ng/mL EGF and 50 μg/mL BPE). Cells were maintained at 70% confluence with a maximum of 25 passages. Day 1: Media was removed and cells were washed with 10 ml DPBS. […] After 1 to 2 minutes incubation, 14 ml media was added to the flask to inactivate the trypsin. The cell suspension was transferred to a centrifuge tube and the cells pelleted at 1000 rpm for 6 minutes. The cell pellet was then resuspended in fresh media supplemented with EGF and BPE. […] 7500 cells were dispensed in each well in a volume of 160 μl and incubated at 37° C. for 24 h.
Day 2: Test compounds were prepared directly into the media. […] The microtiter plates were removed from the incubator and the media replaced with 100 μl of the dilutions of the compound solution. Every set of concentration was done in triplicate, and positive and negative controls were added to each plate. The plates were then incubated for 24 h at 37° C. with 5% CO2 in a humidified atmosphere.
Day 3: The reagent containing the resazurin (CellTiter-Blue, Promega) was diluted in PBS (1:4) and added at 20% (v/v) to each well. The plates were then incubated at 37° C. for 2 h before the fluorescent reduction product was detected.
Media only background values were subtracted before the data was analysed using GraphPad Prism. Compound concentration values were plotted as log values to enable a dose-response curve to be fitted and IC50 values determined (Table 7).
The renal cell toxicity of the additional example compounds was assessed in an in vitro assay using the HK-2 cell as described in the example above.

[1] = system: Escherichia coli isolate ATCC25922; assay type: in vivo; settings: thigh
Description: Groups of 5 female specific-pathogen-free CD-1 mice weighing 22±2 g were used. The animals were made neutropenic by intraperitoneal administration of cyclophosphamide on days −4 (150 mg/kg) and −1 (100 mg/kg). […] Examples 2, 4, 5, 6, 7, 8, 10, 11 and polymyxin B were prepared in Normal Saline at 2 mg/mL and the solution was adjusted to pH 6-7 by addition of 0.1M H2SO4 or 4.2% NaHCO3 as required. Twenty-four hours after infection, the mice were euthanized humanely. The muscle of the right thigh of each animal was harvested, homogenized, serially diluted and plated on Brain Heart Infusion agar+0.5% charcoal (w/v) for CFU determination. Decrease of the total CFU of right thigh as compared to control counts at 24 hrs post-infection was determined for each dose group. […] The in vivo efficacy of the compound of Example 14 was evaluated in a mouse thigh infection model of E. coli. using the methods described in the examples above. The result is summarized in Table 5A in comparison with Polymyxin B.

[2] = system: A. baumannii clinical isolates and resistant strains; assay type: cell-based; settings: clinical isolates and resistant strains
Description: (§1) The in vitro antibacterial activities of the compounds of examples 2 and 6 were evaluated against a panel of […] Gram-negative bacterial isolates alongside Colistin. The panel consisted of 100 clinical isolates of each of A. baumannii, E. coli, K. pneumoniae and P. aeruginosa. The panel represented the current epidemiology in Europe and the USA and included a number of relevant strains with defined resistant phenotypes to current clinically-used antibacterial agents. These resistant strains included 20 A. baumannii, 22 E. coli, 25 K. pneumoniae and 20 P. aeruginosa strains.
(§2) All compounds were tested up to a maximum concentration of 64 μg/mL with the exception of colistin, which was evaluated up to a maximum concentration of 16 μg/mL.

[3] = system: E. coli clinical isolates and resistant strains; assay type: cell-based; settings: clinical isolates and resistant strains
Description: as §1, §2

[4] = system: P. aeruginosa clinical isolates and resistant strains; assay type: cell-based; settings: clinical isolates and resistant strains
Description: as §1, §2

[5] = system: K. pneumoniae clinical isolates and resistant strains; assay type: cell-based; settings: clinical isolates and resistant strains
Description: as §1, §2

[6] = design: species or system rats; settings: rat, in vivo, 8 mg/kg
Description: Colistin and the example compounds were prepared in saline. Compounds were introduced via the jugular canula twice a day 7 hours apart for seven days. […] The dose regimen is set out in Table 8 below.

| Compound | IC50 HK-2 cells (HK-2 cell line) | MIC50 Clinical isolates [2] [µg/mL] | MIC50 Resistant strains [2] [µg/mL] | MIC90 Clinical isolates [2] [µg/mL] | MIC90 Resistant strains [2] [µg/mL] | MIC Range Resistant strains [2] [µg/mL] | MIC50 Clinical isolates [3] [µg/mL] | MIC50 Resistant strains [3] [µg/mL] | MIC90 Clinical isolates [3] [µg/mL] | MIC90 Resistant strains [3] [µg/mL] | MIC Range Resistant strains [3] [µg/mL] | MIC50 Clinical isolates [4] [µg/mL] | MIC50 Resistant strains [4] [µg/mL] | MIC90 Clinical isolates [4] [µg/mL] | MIC90 Resistant strains [4] [µg/mL] | MIC Range Clinical isolates [4] [µg/mL] | MIC Range Resistant strains [4] [µg/mL] | MIC50 Clinical isolates [5] [µg/mL] | MIC50 Resistant strains [5] [µg/mL] | MIC90 Clinical isolates [5] [µg/mL] | also measured |
| --- | --- | --- | --- | --- | --- | --- | --- | --- | --- | --- | --- | --- | --- | --- | --- | --- | --- | --- | --- | --- | --- |
| Polymyxin B [reference compound] | 11^b μg/mL | – | – | – | – | – | – | – | – | – | – | – | – | – | – | – | – | – | – | – | Mean log10 CFU reduction vs. control ([1]; neutropenic CD-1 mice, total daily dosage 3 mg/kg (1.5 mg/kg BID) subcutaneous, 24 h post-infection, Table 5): 2.5 ^a log10 CFU; Mean log10 CFU reduction vs. control ([1]; neutropenic CD-1 mice, total daily dosage 10 mg/kg (5 mg/kg BID) subcutaneous, 24 h post-infection, Table 5): 4.2 ^a log10 CFU; Mean log10 CFU reduction vs. control ([1]; neutropenic mice, total daily dosage 3 mg/kg, additional study, Table 5A): 3.75 log10 CFU; Mean log10 CFU reduction vs. control ([1]; neutropenic mice, total daily dosage 10 mg/kg, additional study, Table 5A): 4.87 log10 CFU |
| CCCCCCC(O)C(=O)N[C@H](C(=O)N[C@@H](CCN)C(=O)N[C@H]1CCNC(=O)[C@H](C(C)O)NC(=O)[C@H](CCN)NC(=O)[C@H](CCN)NC(=O)[C@H](CC(C)C)NC(=O)[C@@H](Cc2ccccc2)NC(=O)[C@H](CCN)NC1=O)C(C)O (stereo partly drawn) [Example 2, [2(R,S)-2-Hydroxyoctanoyl] Polymyxin B Nonapeptide, Sulphate Salt] (X1-[Thr(3ξ)][Dab][Dab][Dab][dF]L[Dab][Dab][Thr(3ξ)]; lactam 3-C) | – | 4 | 4 | 8 | 4 | 2 to 4 | 2 | 1 | 4 | 2 | 0.5 to 4 | 2 | 2 | 4 | 4 | 1 to 8 | 1 to 4 | 8 | 8 | 32 | MIC Range Clinical isolates [2]: 1 to 32 µg/mL; MIC Range Clinical isolates [3]: 1 to 16 µg/mL; MIC90 Resistant strains [5]: 32 µg/mL; levels of the renal biomarker NAG in urine compared to Colistin at the same dose regimen [6]: significantly reduced levels; levels of the renal biomarker albumin in urine compared to Colistin at the same dose regimen [6]: significantly reduced levels; levels of the renal biomarker cystatin C in urine compared to Colistin at the same dose regimen [6]: significantly reduced levels |
| CC(C)C[C@@H]1NC(=O)[C@@H](Cc2ccccc2)NC(=O)[C@H](CCN)NC(=O)[C@@H](NC(=O)[C@H](CCN)NC(=O)[C@@H](NC(=O)CCCN)[C@@H](C)O)CCNC(=O)[C@H]([C@@H](C)O)NC(=O)[C@H](CCN)NC(=O)[C@H](CCN)NC1=O [Example 6, 4-Aminobutanoyl Polymyxin B Nonapeptide, Sulphate Salt] (H-[GABA]T[Dab][Dab][Dab][dF]L[Dab][Dab]T; lactam 4-C) | 154 µg/mL | 2 | 2 | 8 | 4 | 1 to 4 | 2 | 0.5 | 8 | 4 | 0.06 to 4 | 0.25 | 0.5 | 16 | 8 | 0.06 to 64 | 0.12 to 16 | >64 | >64 | >64 | MIC90 Resistant strains [5]: >64 µg/mL; levels of the renal biomarker NAG in urine compared to Colistin at the same dose regimen [6]: significantly reduced levels; levels of the renal biomarker albumin in urine compared to Colistin at the same dose regimen [6]: significantly reduced levels; levels of the renal biomarker cystatin C in urine compared to Colistin at the same dose regimen [6]: significantly reduced levels |
